What was measured:
[1] = system: HepG2 cells; experiment: Caspase assay (Caspase-Glo 3/7) on HepG2 cells; type: cell-based, human; details: 48 hours after addition, 100 uM, n=4
Description: Caspase Assay. Caspase assay was conducted by using the Promega Caspase-Glo 3/7 kit. 100 ul of caspase-Glo 3/7 reagent was added to each well of a white walled 96-well plate containing 100 ul of blank, negative control cells or treated cells in culture medium. The contents of the wells were mixed gently and incubated at room temperature for 30 minutes to 3 hours. The luminescence of each sample was read in a luminometer.

[2] = system: tumor cells; experiment: Effect on the growth of a variety of tumor cells (summary of Table 1); type: cell-based; details: IC50 value of less than 100 μM was considered active
Description: (§1) Maintenance and Treatment of Cell Lines. Human HepG2 hepatocarcinoma cells and human U87MG glioma cells (ATCC, Manassas, Va.) were maintained in EMEM medium supplemented with 10% FBS (Hyclone, Logan, Utah). The human 1321N1 astrocytoma cells (European Collection of Cell Cultures, Sigma-Aldrich) were cultured in Dulbecco's modified Eagle's medium supplemented with 10% FBS and 2 mM L-glutamine. Human prostate carcinoma cell line PC3 was cultured in F-12K medium (Life Technologies) supplemented 10% FBS. Human lung carcinoma cell line A549 was cultured in DMEM+2 mM glutamine+10% FBS. ER positive, estrogen independent for growth MCF7/LCC9 cell line was cultured in IMEM (Biofluids) supplemented with 5% charcoal stripped calf serum. Medulloblastoma cell line DAOY was cultured in Eagle's MEM supplemented with 10% FBS. All cell lines except MDA-MB-321 were cultured at 37° C. in 5% CO2, and the medium was replaced every 2-3 days. MDA-MB-231 was grown in Leibovitz's L-15 medium with 10% FBS without CO2 supplementation.
Cell death assay. The extent of cell death and toxicity of the compounds was tested by XTT assay. The cells were plated in their respective media in 96-well plates. […] The plate was incubated for 4 hours at 37° C. and then the absorbance was read at a wavelength of 490 nm.
The effect of NT015 and NT016 on the growth of a variety of tumor cells was evaluated. […]

[3] = system: DAOY; experiment: XTT cell death assay, DAOY medulloblastoma cells; type: cell-based; details: Homo sapiens, # = 200 uM not tested, read-out: DAOY: concentration with effect on cancer cells
Description: as §1
(§2) Cell death assay. The extent of cell death and toxicity of the compounds was tested by XTT assay. The cells were plated in their respective media in 96-well plates. The compounds and were added in dilutions ranging from 0.01 nM to 200 μM and for control DMSO to 1% was used. […] For XTT assay first the medium in the wells was replaced with 200 μs of fresh phenol-red free medium. Then 50 μls of XTT solution with PMS was added to the wells. The XTT solution was made adding 0.02% phenazine methosulfate (Sigma-Aldrich #P9625) to 1 mg/ml XTT sodium salt made up in phenol-red free RPMI (Sigma-Aldrich #X4636). The plate was incubated for 4 hours at 37° C. and then the absorbance was read at a wavelength of 490 nm.

[4] = system: PC3 cells; experiment: XTT cell death assay, PC3 prostate carcinoma cells; type: cell-based; details: Homo sapiens, PC-3, # = 200 uM not tested, read-out: PC3: concentration with effect on cancer cells
Description: as §1, §2

[5] = system: MCF7/LCC9 cell line; experiment: XTT cell death assay, MCF7/LCC9 cells; type: cell-based; details: Homo sapiens, # = 200 uM not tested, read-out: LCC-9: concentration with effect on cancer cells
Description: as §1, §2

[6] = system: A549; experiment: XTT cell death assay, A549 lung carcinoma cells; type: cell-based; details: Homo sapiens, # = 200 uM not tested, read-out: A549: concentration with effect on cancer cells
Description: as §1, §2

[7] = system: A549 xenograft; experiment: Zebrafish xenograft assay with implanted A549 cells; type: in vivo; details: zebrafish embryos, 100 uM, 4 days after implantation, n=10 to 15
Description: Zebrafish xenograft assay. Zebrafish embryos with implanted A549 cells were imaged within 6 hours of cell injection (day 0) and treated with compounds. At 4 days post injection (day 4) the embryos were imaged again. The area of fluorescence due to the labeled cells was measured using Image J at day 0 (area 0) and day 4 (area 4). The change in area was calculated by subtracting area 0 from area 4 (=d area). D area was then normalized for the size of the initial tumor by dividing d area by area 0 (=d area/area 0).

[8] = system: HepG2 cells; experiment: XTT cell death assay, HepG2 hepatocarcinoma cells; type: cell-based, human; details: Homo sapiens, HepG2, *Greater than 50% inhibition, dilutions 0.01 nM to 200 μM, usually 24 or 48 hours, read-out: HepG2* (liver cancer): concentration with greater than 50% inhibition
Description: as §1, with “FBS.” for “FBS. All cell lines except MDA-MB-321 were cultured at 37° C. in 5% CO2, and the medium was replaced every 2-3 days. MDA-MB-231 was grown in Leibovitz's L-15 medium with 10% FBS without CO2 supplementation.”
as §2, with “#X4636).” for “#X4636). The plate was incubated for 4 hours at 37° C. and then the absorbance was read at a wavelength of 490 nm.”

| SMILES | caspase activity (fluorescence ratio to untreated cells) [1] | inhibition of liver, lung, breast, prostate and CNS cancer cell growth [2] | minimal effective concentration [3] [µM] | minimal effective concentration [4] [µM] | minimal effective concentration [5] [µM] | minimal effective concentration [6] [µM] | area of A549 xenograft implant [7] | minimal effective concentration [8] [µM] |
| --- | --- | --- | --- | --- | --- | --- | --- | --- |
| CC(N)Cc1ccc2ccccc2c1 (stereo not drawn) [NT015, 1-(naphthalen-2-yl)propan-2-amine] | increase in caspase activity | potent inhibitors | – | – | – | – | – | – |
| CC(Cc1cccc2ccccc12)NCCc1ccc(O)cc1 (stereo not drawn) [NT016, 4-(2-((1-(naphthalen-1-yl)propan-2-yl)amino)ethyl)phenol] | – | potent inhibitors | 100 | 200 | 100 | 100 | efficacy of reducing the area of xenograft significantly | 100 |

Reference: patent US20190337889A1, “COMPOSITIONS AND METHODS OF REGULATING CANCER RELATED DISORDERS AND DISEASES” (ONCO THERAPIES LLC, priority 2016, published 2019)
